Source: a polymer gas permeability compilation

CH4 permeability	CO2 permeability	N2 permeability	O2 permeability	H2 permeability	Structure (SMILES)
360 Barrer	1200 Barrer	–	237 Barrer	–	*O[Si](C)(C)CCCCCCCC[Si](*)(C)C (repeat unit)
2.88 Barrer	72 Barrer	2.39 Barrer	11 Barrer	74 Barrer	*c1ccc(C2(c3ccc(*)cc3)OC(=O)c3ccccc32)cc1 (repeat unit)
580 Barrer	6100 Barrer	320 Barrer	820 Barrer	2100 Barrer	*Oc1cc2c(cc1O*)C1(CC2(C)CC)c2cc3c(cc2C(C)(CC)C1C)Oc1c(C#N)c(*)c(*)c(C#N)c1O3 (repeat unit)
450 Barrer	2200 Barrer	160 Barrer	390 Barrer	810 Barrer	*C(=C(*)c1ccc(-c2ccc([Si](C)(C)C)cc2)cc1)c1ccccc1 (repeat unit)
–	88.2 Barrer	9.4 Barrer	20.2 Barrer	–	*c1cc(CCCCCCCCCCCC)c(*)s1 (repeat unit)
0.25 Barrer	5.6 Barrer	0.25 Barrer	1.4 Barrer	14 Barrer	*Oc1ccc(C(C)(C)c2ccc(Oc3ccc(S(=O)(=O)c4ccc(*)cc4)cc3)cc2)cc1 (repeat unit)
500 Barrer	2100 Barrer	190 Barrer	460 Barrer	900 Barrer	*C(=C(*)c1ccc2c(ccc3ccccc32)c1)c1ccc([Si](C)(C)C)cc1 (repeat unit)
3.1 Barrer	71 Barrer	2.55 Barrer	12 Barrer	91 Barrer	*c1c(C)c(C)c(N2C(=O)c3ccc(Oc4cc(C(C)(C)C)ccc4Oc4ccc5c(c4)C(=O)N(*)C5=O)cc3C2=O)c(C)c1C (repeat unit)
0.54 Barrer	8.8 Barrer	0.45 Barrer	1.95 Barrer	–	*=CC1CC(C=*)C2C(=O)N(C3CCCC3)C(=O)C12 (repeat unit)
9300 Barrer	17000 Barrer	3500 Barrer	5000 Barrer	8700 Barrer	*C(=C(*)c1ccc2c(c1)C(C)(C)c1ccccc1-2)c1ccc(Br)cc1 (repeat unit)
6.3 Barrer	190 Barrer	10 Barrer	50 Barrer	322 Barrer	*c1ccc2c(c1C)N1Cc3ccc(N4C(=O)c5ccc(C(c6ccc7c(c6)C(=O)N(*)C7=O)(C(F)(F)F)C(F)(F)F)cc5C4=O)c(C)c3N(C2)C1 (repeat unit)
190 Barrer	1220 Barrer	70.5 Barrer	195 Barrer	455 Barrer	*C(=C(*)c1ccc(-c2ccc(C(C)(C)C)cc2)cc1)c1ccccc1 (repeat unit)
–	–	0.026 Barrer	0.22 Barrer	6.88 Barrer	*Oc1ccc2c(c1)-c1nc3cc(Oc4ccc5nc6n(c5c4)C(=O)c4cc(*)ccc4-6)ccc3n1C2=O (repeat unit)
0.901 Barrer	26.9 Barrer	1.5 Barrer	7.1 Barrer	17 Barrer	*c1ccc(C(C)(C)c2ccc(-n3c(=O)c4cc5c(=O)n(*)c(=O)c5cc4c3=O)cc2)cc1 (repeat unit)
10 Barrer	166 Barrer	6.6 Barrer	25 Barrer	114 Barrer	*c1ccc(-c2ccc(C(*)(c3ccccc3)C(F)(F)F)cc2)cc1 (repeat unit)
0.98 Barrer	16.8 Barrer	1.8 Barrer	8.6 Barrer	–	*Oc1c(C)cc(*)c(C(=O)c2ccc(Cl)cc2)c1C (repeat unit)
187 Barrer	3350 Barrer	158 Barrer	696 Barrer	2740 Barrer	*c1c(C)cc(-c2cc(C)c(N3C(=O)c4cc5c(cc4C3=O)C3(C)c4ccccc4C5(C)c4cc5c(cc43)C(=O)N(*)C5=O)c3ccccc23)c2ccccc12 (repeat unit)
0.269 Barrer	5.6 Barrer	0.272 Barrer	1.45 Barrer	–	*Oc1ccc(C(C)(C)c2ccc(OC(=O)c3cccc(C(*)=O)c3)cc2)cc1 (repeat unit)
–	150 Barrer	10.1 Barrer	37.7 Barrer	–	*CC(*)c1ccc(C([Si](C)(C)C)[Si](C)(C)C)cc1 (repeat unit)

Second part, the compound before the results:

Structure (SMILES)	CH4 permeability	CO2 permeability	N2 permeability	O2 permeability	H2 permeability
*Nc1ccc(C(C)(C)c2ccc(NC(=O)c3ccc(Oc4cc(C(C)(C)C)c(Oc5ccc(C(*)=O)cc5)cc4C(C)(C)C)cc3)cc2)cc1 (repeat unit)	0.47 Barrer	13 Barrer	0.46 Barrer	3.11 Barrer	–
*C/C=C(/Cl)C* (repeat unit)	3.28 Barrer	25.6 Barrer	2.07 Barrer	4 Barrer	20.6 Barrer
*c1ccc(C(c2ccc(N3C(=O)c4ccc(C(=O)c5ccc6c(c5)C(=O)N(*)C6=O)cc4C3=O)cc2)(C(F)(F)F)C(F)(F)F)cc1 (repeat unit)	0.191 Barrer	17.5 Barrer	0.375 Barrer	2.18 Barrer	30.8 Barrer
*Oc1ccc(C(c2ccc(Oc3ccc(C(=O)c4ccc(C(c5ccc(C(=O)c6ccc(*)cc6)cc5)(C(F)(F)F)C(F)(F)F)cc4)cc3)cc2)(C(F)(F)F)C(F)(F)F)cc1 (repeat unit)	0.477 Barrer	11.5 Barrer	0.76 Barrer	3.7 Barrer	31.4 Barrer
*Oc1ccc(C(=O)c2ccc(Oc3ccc(C(c4ccc(*)cc4)(C(F)(F)F)C(F)(F)F)cc3)cc2)c2ccccc12 (repeat unit)	0.21 Barrer	6.04 Barrer	0.325 Barrer	1.85 Barrer	–
*CC(*)(C)C#N (repeat unit)	–	0.0032 Barrer	–	0.0012 Barrer	–
*C(=C(*)c1ccccc1)c1ccccc1 (repeat unit)	3700 Barrer	6600 Barrer	2720 Barrer	3600 Barrer	–
*O[Si](*)(C)CCC(F)(F)F (repeat unit)	201 Barrer	1390 Barrer	88.3 Barrer	200 Barrer	–
*Nc1c(C)cc(Cc2cc(C)c(NC(=O)c3ccc(Oc4cc(C(C)(C)C)c(Oc5ccc(C(*)=O)cc5)cc4C(C)(C)C)cc3)c(C(C)C)c2)cc1C(C)C (repeat unit)	1.21 Barrer	27 Barrer	1.18 Barrer	6.47 Barrer	–
*c1ccc(Oc2ccc(-c3cccc(-c4ccc(Oc5ccc(N6C(=O)c7ccc(C(c8ccc9c(c8)C(=O)N(*)C9=O)(C(F)(F)F)C(F)(F)F)cc7C6=O)cc5)c(C(F)(F)F)c4)n3)cc2C(F)(F)F)cc1 (repeat unit)	1.95 Barrer	51.9 Barrer	1.91 Barrer	12.2 Barrer	–
*c1cccc2c(-n3c(=O)c4cc5oc6cc7c(cc6oc5cc4c3=O)C3(CC(C)(C)c4cc5oc6cc8c(=O)n(*)c(=O)c8cc6oc5cc43)CC7(C)C)cccc12 (repeat unit)	27 Barrer	510 Barrer	19 Barrer	77 Barrer	350 Barrer
*Oc1cc2c(cc1O*)C(=O)N(c1c(C)c(C)c(-n3c(=O)c4cc5oc6cc7c(cc6oc5cc4c3=O)C3(C(C)C)c4ccccc4C7(C(C)C)c4cc(*)c(*)cc43)c(C)c1C)C2=O (repeat unit)	83.7 Barrer	–	87.4 Barrer	542 Barrer	3430 Barrer
*OCCCCCC(*)=O (repeat unit)	1.57 Barrer	16.8 Barrer	0.59 Barrer	1.32 Barrer	5.06 Barrer
*CC(*)c1ccc(S(=O)(=O)[O-])cc1 (repeat unit)	0.119 Barrer	4.15 Barrer	0.101 Barrer	0.845 Barrer	10.8 Barrer
*C(=O)c1ccc(C2(c3ccc(C(=O)c4ccc(Oc5ccc(C(=O)c6cccc(C(=O)c7ccc(Oc8ccc(*)cc8)cc7)c6)cc5)cc4)cc3)OC(=O)c3ccccc32)cc1 (repeat unit)	0.0276 Barrer	0.91 Barrer	0.031 Barrer	0.27 Barrer	5.3 Barrer
*c1ccc(Oc2ccc3ccccc3c2-c2c(Oc3ccc(N4C(=O)c5ccc(C(c6ccc7c(c6)C(=O)N(*)C7=O)(C(F)(F)F)C(F)(F)F)cc5C4=O)cc3C)ccc3ccccc23)c(C)c1 (repeat unit)	0.28 Barrer	18.4 Barrer	0.53 Barrer	3.35 Barrer	26.2 Barrer
*C=C(*)C(C)(C)C (repeat unit)	85 Barrer	560 Barrer	43 Barrer	130 Barrer	–
*Nc1ccc(S(=O)(=O)c2ccc(NC(=O)c3cc(C(*)=O)cc(-c4ccccc4)c3)cc2)cc1 (repeat unit)	0.11 Barrer	3.2 Barrer	0.13 Barrer	0.75 Barrer	7.6 Barrer
*=CC1CC(C=*)C2C1C([Si](O[Si](C)(C)C)(O[Si](C)(C)C)O[Si](C)(C)C)C2[Si](O[Si](C)(C)C)(O[Si](C)(C)C)O[Si](C)(C)C (repeat unit)	300 Barrer	1160 Barrer	100 Barrer	295 Barrer	690 Barrer
*Oc1ccc(S(=O)(=O)c2ccc(Oc3ccc(C(c4ccc(*)cc4)(C(F)(F)F)C(F)(F)F)cc3)cc2)cc1 (repeat unit)	0.345 Barrer	8.45 Barrer	0.431 Barrer	2.33 Barrer	15.1 Barrer
*N=P(*)(C)C (repeat unit)	–	29.4 Barrer	1.27 Barrer	3.53 Barrer	–
*CCC(F)(Cl)C(*)(F)F (repeat unit)	–	0.607 Barrer	0.061 Barrer	0.152 Barrer	–
*c1ccc(Oc2ccc(N3C(=O)c4ccc(C(c5ccc6c(c5)C(=O)N(*)C6=O)(C(F)(F)F)C(F)(F)F)cc4C3=O)cc2)cc1 (repeat unit)	0.407 Barrer	20.6 Barrer	0.797 Barrer	4.21 Barrer	44 Barrer
